Target: Cyclin-A2/Cyclin-dependent kinase 2 (Homo sapiens, UniProt P24941)
Experiment: CDK Inhibition Assay
Settings: pH 7.5; 22 °C
Protocol: In vitro kinase assay using purified CDK2/Cyclin A was incubated at room temperature with substrate, and test compounds in the presence of 100 uM ATP/ [gamma-33P] ATP. Assays were performed in 96-well polypropylene plates. 33P incorporation into substrate was measured using a scintillation counter.

IC50: 0.23 µM
Structure (SMILES): CC(C)c1cnn2c(Nc3ccc(S(C)(=O)=O)cc3)cc(Cl)nc12 [5-chloro-N-(4-methanesulfonylphenyl)-3-(propan-2-yl)pyrazolo[1,5-a]pyrimidin-7-amine]

From BindingDB's records for doi:10.1016/j.bmcl.2004.12.073 (Vernalis (R&D), 2005)
